In patent publication US20260217697A1, “COMPOUNDS COMPRISING HETEROARYL RINGS AND COMPOSITIONS AND METHODS THEREOF” (lonGen Therapeutics Co., Ltd., priority 2022, published 2026):

Target: T1, hTRPV3 (Homo sapiens, UniProt Q8NET8)
T1 construct: The commercially available plasmid with the full-length cDNA of hTRPV3 (791 aa) (NM_001258205.2); host or cells: HEK293T
T1 sequence (Q8NET8 1-791 isoform Q8NET8-2): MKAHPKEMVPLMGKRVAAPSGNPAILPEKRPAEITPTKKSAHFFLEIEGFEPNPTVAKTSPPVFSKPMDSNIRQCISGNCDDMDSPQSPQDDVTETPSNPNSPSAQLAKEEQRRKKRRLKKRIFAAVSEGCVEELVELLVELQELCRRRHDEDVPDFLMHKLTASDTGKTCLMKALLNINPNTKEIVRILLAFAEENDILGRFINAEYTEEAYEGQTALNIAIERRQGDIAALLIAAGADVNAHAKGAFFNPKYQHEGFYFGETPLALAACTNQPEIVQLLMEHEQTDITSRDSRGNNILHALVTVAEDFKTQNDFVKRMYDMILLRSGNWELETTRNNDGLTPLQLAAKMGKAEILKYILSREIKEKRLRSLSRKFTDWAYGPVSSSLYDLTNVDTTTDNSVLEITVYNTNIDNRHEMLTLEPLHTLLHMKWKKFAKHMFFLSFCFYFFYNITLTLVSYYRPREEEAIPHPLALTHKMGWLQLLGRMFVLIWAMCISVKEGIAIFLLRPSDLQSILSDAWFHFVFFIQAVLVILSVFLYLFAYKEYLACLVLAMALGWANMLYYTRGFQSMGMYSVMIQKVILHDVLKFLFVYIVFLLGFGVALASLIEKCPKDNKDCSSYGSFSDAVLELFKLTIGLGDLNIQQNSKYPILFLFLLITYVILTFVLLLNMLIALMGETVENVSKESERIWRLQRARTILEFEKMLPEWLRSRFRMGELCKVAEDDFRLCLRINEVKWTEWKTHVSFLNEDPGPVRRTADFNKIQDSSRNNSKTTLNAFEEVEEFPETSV
Assay: Whole-cell patch-clamp recording of hTRPV3 current in transfected HEK293T cells (2-APB induced)
Assay type: cell-based
Settings: current induced by 300 μM 2-APB, compounds tested up to 10 μM, room temperature
Protocol: Various technologies can be utilized to assess TRPV3 activation in accordance with the present disclosure. For example, in some embodiments, compounds are assessed in in vitro patch clamp experiments. Certain useful procedures are described herein as examples.
In some embodiments, whole-cell patch-clamp recordings were used to detect the current through hTRPV3 channels in the HEK293T cell line transfected with hTRPV3 cDNA and evaluate the exact blocking effect of compounds on hTRPV3. In some embodiments, a perfusion system was adopted to control the extracellular solution, including the addition of the agonist and different antagonists.
HEK293T cells were cultured in a Dulbecco's modified Eagle's medium containing 10% fetal bovine serum (Thermo Scientific) and 1% penicillin/streptomycin (Thermo Scientific) at 37° C. with 5% CO2. The commercially available plasmid with the full-length cDNA of hTRPV3 (791 aa) (NM_001258205.2) was purchased from OriGene Technologies. The transfection of hTRPV3 plasmids was conducted using Lipofectamine™ 3000 following the manufacturer's instructions (Invitrogen).
Whole-cell patch-clamp experiments were performed 18 h post-transfection, using a MultiClamp 700B amplifier driven by pClamp 11 software (Molecular Devices). In order to achieve good single-cell physical separation, HEK293T cells with hTRPV3 expression were digested and then re-plated at low density on glass coverslips. Electrodes were pulled from borosilicate glass with a P-97 micropipette puller (Sutter Instruments) and those with resistances of 3-5 MΩ are used for experiments. In some embodiments, an Ag—AgCl wire was used as a reference electrode and signals are filtered using a 2.9 kHz low-pass Bessel filter. Membrane potential was held at 0 mV. For recording of agonist-induced activation and inhibition by different test compounds, currents were elicited by a protocol consisting of a 400-ms step to +80 mV, followed by a 400-ms step to −80 mV at 2-s intervals. both pipette and bath solutions contained 130 mM NaCl, 0.3 mM EDTA, and 3 mM HEPES (buffered to pH 7.4 with NaOH). All recordings were made at room temperature.
All patch-clamp recordings were analyzed using the Clampfit software and GraphPad Prism 6.0 software. Specifically, data are analyzed by calculating the degree of current amplitude after the test compound addition compared with the unblocked agonist-induced current amplitude. The resulting blocking percentage at each concentration was used to make a concentration-response analysis and fitted to the Hill equation: blocking percentage=minimum blocking percentage+ (maximum blocking percentage-minimum blocking percentage)/(1+10^(Hill slope* […])). The minimum blocking percentage is 0% and maximum blocking percentage is 100%, while the Hill slope and the IC50 were determined as the curve fitting routine. Compounds of interest were tested against hTRPV3 at concentrations up to 10 μM, and certain data was used to estimate IC50 as described herein.

| SMILES | IC50 [nM] |
| --- | --- |
| COc1ncnc(OC)c1C(=O)Nc1nc2c(s1)C(C)(C)Nc1cc(C(F)(F)F)ccc1-2 [compound 85, N-(4,4-dimethyl-7-(trifluoromethyl)-4,5-dihydrothiazolo[5,4-c]quinolin-2-yl)-4,6-dimethoxypyrimidine-5-carboxamide] | 1000 to 10000 |
| CCC1(CC)Oc2cc(C(F)(F)F)ccc2-c2nc(NS(=O)(=O)c3c(OC)ncnc3OC)sc21 [compound 56] | ≥ 10000 |
| CCOC(=O)c1ccc2c(c1)OC(CC)(CC)c1sc(NC(=O)c3c(OC)ncnc3OC)nc1-2 [compound 62, ethyl 2-(4,6-dimethoxypyrimidine-5-carboxamido)-4,4-diethyl-4H-chromeno[4,3-d]thiazole-7-carboxylate] | 1000 to 10000 |
| CCC1(CC)Oc2cc(C(F)(F)F)ccc2-c2nc(NC(=O)c3cc(OC)nnc3OC)sc21 [compound 91, N-(4,4-diethyl-7-(trifluoromethyl)-4H-chromeno[4,3-d]thiazol-2-yl)-3,6-dimethoxypyridazine-4-carboxamide] | ≥ 10000 |
| COc1ncnc(OC)c1C(=O)Nc1nc2c(s1)C1(CCN(C(C)C)CC1)Oc1cc(C(F)(F)F)ccc1-2 [compound 152, N-(1′-isopropyl-7-(trifluoromethyl)spiro[chromeno[4,3-d]thiazole-4,4′-piperidin]-2-yl)-4,6-dimethoxypyrimidine-5-carboxamide] | 100 to 1000 |
| COc1ncnc(OC)c1C(=O)Nc1nc2c(s1)CCc1cc(C(F)(F)F)ccc1-2 [compound 22, 4,6-dimethoxy-N-(7-(trifluoromethyl)-4,5-dihydronaphtho[1,2-d]thiazol-2-yl)pyrimidine-5-carboxamide] | ≥ 10000 |

Other lines, results leading:

| IC50 [nM] | SMILES |
| --- | --- |
| 100 to 1000 | COCC1(COC)Oc2cc(C(F)(F)F)ccc2-c2nc(NC(=O)c3c(OC)ncnc3OC)sc21 [compound 66, N-(4,4-bis(methoxymethyl)-7-(trifluoromethyl)-4H-chromeno[4,3-d]thiazol-2-yl)-4,6-dimethoxypyrimidine-5-carboxamide] |
| 100 to 1000 | COc1ncnc(OC)c1C(=O)Nc1nc2c(s1)C1(CC(C)CC(C)C1)Oc1cc(C(F)(F)F)ccc1-2 (centres unmarked) [compound 37, N-(3′,5′-dimethyl-7-(trifluoromethyl)spiro[chromeno[4,3-d]thiazole-4,1′-cyclohexan]-2-yl)-4,6-dimethoxypyrimidine-5-carboxamide] |
| 100 to 1000 | CCC1(CC)Oc2cc(C(F)(F)F)ccc2-c2nc(NC(=O)c3c(C)ncnc3OC)sc21 [compound 57, N-(4,4-diethyl-7-(trifluoromethyl)-4H-chromeno[4,3-d]thiazol-2-yl)-4-methoxy-6-methylpyrimidine-5-carboxamide] |
| < 100 | COc1ncnc(OC)c1C(=O)Nc1nc2c(s1)C1(CCCCC1)Oc1cc(C(F)(F)F)ccc1-2 [compound 13, 4,6-dimethoxy-N-(7-(trifluoromethyl)spiro[chromeno[4,3-d]thiazole-4,1′-cyclohexan]-2-yl)pyrimidine-5-carboxamide] |
| 100 to 1000 | CCC1CCCC2(C1)Oc1cc(C(F)(F)F)ccc1-c1nc(NC(=O)c3c(OC)ncnc3OC)sc12 (centres unmarked) [compound 38, N-(3′-ethyl-7-(trifluoromethyl)spiro[chromeno[4,3-d]thiazole-4,1′-cyclohexan]-2-yl)-4,6-dimethoxypyrimidine-5-carboxamide] |
| 100 to 1000 | COc1ncnc(OC)c1C(=O)Nc1nc2c(s1)C1(CCC(OCc3ccccc3)CC1)Oc1cc(C(F)(F)F)ccc1-2 (centres unmarked) [compound 30, N-(4′-(benzyloxy)-7-(trifluoromethyl)spiro[chromeno[4,3-d]thiazole-4,1′-cyclohexan]-2-yl)-4,6-dimethoxypyrimidine-5-carboxamide] |
| 100 to 1000 | CCOC(=O)[C@H]1CC[C@@]2(CC1)Oc1cc(Br)ccc1-c1nc(NC(=O)c3c(OC)ncnc3OC)sc12 [compound 129] |
| 100 to 1000 | COc1ncnc(OC)c1C(=O)Nc1nc2c(s1)C1(CN(C(=O)c3ccccc3)C1)Oc1cc(C(F)(F)F)ccc1-2 [compound 75, N-(1-benzoyl-7′-(trifluoromethyl)spiro[azetidine-3,4′-chromeno[4,3-d]thiazol]-2′-yl)-4,6-dimethoxypyrimidine-5-carboxamide] |
